Tested on: IL-5 production in human blood
Assay: in vitro inhibition of IL-5 production in human blood (whole blood stimulated with phytohemagglutinin, IL-5 by ELISA)
Assay type: cell-based
Settings: test dose 1×10^−6 M, phytohemagglutinin HA17 stimulation, 48 hours, read-out: % inh. (percentage inhibition of IL-5 production)
Method: in vitro Inhibition of IL-5 Production in Human Blood
Human Whole Blood Stimulation
Peripheral blood from healthy male donors was drawn into heparinized syringes (12.5 U heparin/ml). Blood samples were three-fold diluted in RMPI 1640 medium (Life Technologies, Belgium) supplemented with 2 mM L-glutamine, 100 U/ml penicillin and […] streptomycin, and […] fractions were distributed in 24-well multidisc plates. Blood samples were preincubated (60 minutes at 37° C.) in a humidified 6% CO2-atmosphere with 100 ml of drug solvent (final concentration 0.02% dimethylsulfoxide in RPMI 1640) or with 100 ml of an appropriate dose of test compound before being stimulated by the addition of […] of phytohemagglutinin HA17 (Murex, UK) at a final concentration of […]. After 48 hours, cell-free supernatant fluids were collected by centrifugation and stored at −70° C. until tested for the presence of IL-5.
IL-5 measurements were conducted as described in Van Wauwe et al. (1996, Inflamm Res, 45, 357-363) on page 358 using ELISA.
Table 1 lists the percentage inhibition of IL-5 production (column “% inh”) at a test dose of 1×10^−6 M for the compounds of the present invention.

CS(=O)(=O)c1ccc(C2(C(N)=S)CCc3cc(-n4ncc(=O)[nH]c4=O)ccc32)cc1 (centres unmarked) [Compound 6]
inhibition at 1 µM: 6%

Cc1sc(C2(c3ccc(S(C)(=O)=O)cc3)CCc3cc(-n4ncc(=O)[nH]c4=O)ccc32)nc1-c1ccccc1 (centres unmarked) [Compound 7]
inhibition at 1 µM: 39%
